# Results published in ChEMBL document CHEMBL1201862, “PubChem BioAssay data set” (2004).
# Active and inactive are the calls of the source.
# Legend:
# SUMO-activating enzyme = SUMO-activating enzyme (Homo sapiens, UniProt Q9UBT2); test: blockers of UBC9-mediated SUMO conjugation – biochemical, AlphaScreen, SUMOylation inhibitor project, confirmation (AID 2018); assay type: functional
# [1] = target: T1, Mannose-6-phosphate isomerase (Homo sapiens, UniProt P34949); test: MPI inhibition at elevated mannose 6-phosphate – biochemical, fluorescence intensity, high mannose 6-phosphate, primary screen (AID 1220)
# T1 sequence (P34949 whole entry): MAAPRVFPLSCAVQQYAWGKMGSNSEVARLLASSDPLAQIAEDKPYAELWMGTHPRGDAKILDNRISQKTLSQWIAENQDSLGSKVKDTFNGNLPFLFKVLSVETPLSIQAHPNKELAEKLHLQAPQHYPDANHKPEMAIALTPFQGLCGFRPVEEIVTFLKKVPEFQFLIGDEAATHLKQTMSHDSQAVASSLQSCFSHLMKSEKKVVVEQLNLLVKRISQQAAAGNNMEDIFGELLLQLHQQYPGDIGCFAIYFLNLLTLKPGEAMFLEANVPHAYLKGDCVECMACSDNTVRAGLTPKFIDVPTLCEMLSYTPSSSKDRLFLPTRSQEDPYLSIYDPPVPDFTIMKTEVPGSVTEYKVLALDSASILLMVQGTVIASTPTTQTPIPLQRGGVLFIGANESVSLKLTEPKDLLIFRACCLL
# INS1 = test: INS-1E survival protection against cytokine death – cell-based, luminescence, retest, dose response (AID 449756); assay type: functional; settings: Rattus norvegicus;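 also: cell death triggered by IL-1 beta plus TNF-alpha plus IFN-gamma mixture; protective hits raise ATP signal compared with cytokine alone wells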
# Hexokinase HKDC1 = target: T2, Hexokinase HKDC1 (Homo sapiens, UniProt Q2TB90); test: activation of HKDC1 glucose phosphorylation – biochemical, W721R variant, dose response (AID 504730); assay type: functional
# T2 sequence (Q2TB90 whole entry): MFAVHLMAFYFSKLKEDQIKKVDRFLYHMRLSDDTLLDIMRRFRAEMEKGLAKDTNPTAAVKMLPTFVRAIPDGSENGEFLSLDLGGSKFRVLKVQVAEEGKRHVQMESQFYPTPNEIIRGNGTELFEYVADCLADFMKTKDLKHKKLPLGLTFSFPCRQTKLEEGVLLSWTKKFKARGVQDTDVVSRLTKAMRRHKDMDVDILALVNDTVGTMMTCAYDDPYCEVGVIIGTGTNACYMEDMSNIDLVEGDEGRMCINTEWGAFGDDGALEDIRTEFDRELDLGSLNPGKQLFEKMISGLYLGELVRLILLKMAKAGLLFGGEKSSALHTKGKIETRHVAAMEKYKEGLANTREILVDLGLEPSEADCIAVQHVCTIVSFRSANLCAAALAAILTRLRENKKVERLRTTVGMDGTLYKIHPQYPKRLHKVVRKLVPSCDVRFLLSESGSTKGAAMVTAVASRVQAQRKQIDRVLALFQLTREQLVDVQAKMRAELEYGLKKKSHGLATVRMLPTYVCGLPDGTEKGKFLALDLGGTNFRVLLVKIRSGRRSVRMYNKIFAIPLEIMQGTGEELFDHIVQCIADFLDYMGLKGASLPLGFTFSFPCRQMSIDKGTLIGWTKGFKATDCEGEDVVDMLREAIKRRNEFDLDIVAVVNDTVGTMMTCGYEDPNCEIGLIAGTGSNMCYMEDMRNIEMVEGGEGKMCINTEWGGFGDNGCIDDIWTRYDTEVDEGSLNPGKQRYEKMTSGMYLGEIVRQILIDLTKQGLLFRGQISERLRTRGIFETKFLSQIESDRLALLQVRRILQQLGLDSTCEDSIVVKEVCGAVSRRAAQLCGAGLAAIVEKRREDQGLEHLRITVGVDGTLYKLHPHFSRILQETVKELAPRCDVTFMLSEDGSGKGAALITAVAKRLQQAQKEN
# Hexokinase-1 = Hexokinase-1 (Homo sapiens, UniProt P19367); test: HK1 enzyme activation by HKDC1 hits – biochemical, selectivity assay for HKDC1 activator project, dose response (AID 504762); assay type: functional
# Hexokinase-1, sequence (P19367 whole entry): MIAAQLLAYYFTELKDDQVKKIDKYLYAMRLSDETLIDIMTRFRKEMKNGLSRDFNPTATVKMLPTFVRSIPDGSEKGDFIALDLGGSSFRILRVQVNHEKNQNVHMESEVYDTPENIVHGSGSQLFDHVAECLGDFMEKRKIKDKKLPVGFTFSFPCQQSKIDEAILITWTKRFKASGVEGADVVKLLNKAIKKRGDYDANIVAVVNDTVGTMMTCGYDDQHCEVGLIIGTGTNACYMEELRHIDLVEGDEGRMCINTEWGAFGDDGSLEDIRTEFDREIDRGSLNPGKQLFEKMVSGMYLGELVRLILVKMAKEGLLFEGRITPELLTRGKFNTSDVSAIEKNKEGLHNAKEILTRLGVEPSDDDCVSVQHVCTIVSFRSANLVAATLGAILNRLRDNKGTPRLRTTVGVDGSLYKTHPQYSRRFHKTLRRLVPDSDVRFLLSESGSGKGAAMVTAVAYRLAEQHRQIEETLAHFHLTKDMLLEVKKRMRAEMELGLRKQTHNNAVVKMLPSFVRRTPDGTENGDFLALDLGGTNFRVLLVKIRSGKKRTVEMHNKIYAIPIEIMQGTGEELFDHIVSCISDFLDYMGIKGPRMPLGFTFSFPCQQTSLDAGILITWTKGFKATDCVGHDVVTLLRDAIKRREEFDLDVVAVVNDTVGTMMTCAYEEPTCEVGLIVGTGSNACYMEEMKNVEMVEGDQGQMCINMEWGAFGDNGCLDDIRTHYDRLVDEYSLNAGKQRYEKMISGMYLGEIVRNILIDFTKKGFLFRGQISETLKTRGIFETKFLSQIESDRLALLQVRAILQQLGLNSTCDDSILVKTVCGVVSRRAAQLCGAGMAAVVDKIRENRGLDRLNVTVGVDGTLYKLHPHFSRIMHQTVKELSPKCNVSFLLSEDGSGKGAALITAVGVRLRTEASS
# Nonstructural protein 1 = Nonstructural protein 1 (Influenza A virus, UniProt Q194T2); assay type: functional, Influenza A virus (A/California/07/2009(H1N1))
# Nonstructural protein 1, sequence (Q194T2 whole entry): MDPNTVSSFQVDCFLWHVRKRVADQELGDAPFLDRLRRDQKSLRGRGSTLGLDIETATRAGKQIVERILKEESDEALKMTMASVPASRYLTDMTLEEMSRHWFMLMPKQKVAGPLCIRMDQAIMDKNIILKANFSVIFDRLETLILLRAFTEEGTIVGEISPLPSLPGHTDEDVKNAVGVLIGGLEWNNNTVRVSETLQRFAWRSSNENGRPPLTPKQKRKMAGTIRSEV
# [2] = target: T3, Delta-type opioid receptor (Homo sapiens, UniProt P41143); test: HTS Image-Based Screen for Agonists of the DOR Receptor. [Related pubchem assays (depositor defined):AID1777, AID1786, AID2133]; assay type: functional
# T3 sequence (P41143 whole entry): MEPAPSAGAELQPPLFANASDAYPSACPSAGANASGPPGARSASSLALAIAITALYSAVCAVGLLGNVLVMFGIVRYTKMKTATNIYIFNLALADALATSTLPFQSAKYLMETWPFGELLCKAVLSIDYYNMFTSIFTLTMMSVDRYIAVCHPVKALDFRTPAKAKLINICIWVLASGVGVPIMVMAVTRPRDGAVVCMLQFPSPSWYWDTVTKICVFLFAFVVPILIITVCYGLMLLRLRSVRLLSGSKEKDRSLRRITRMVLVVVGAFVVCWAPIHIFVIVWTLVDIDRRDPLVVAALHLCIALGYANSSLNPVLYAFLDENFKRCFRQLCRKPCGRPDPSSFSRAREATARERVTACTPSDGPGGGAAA
# [3] = target: T4, Kappa-type opioid receptor (Homo sapiens, UniProt P41145); assay type: functional
# T4 sequence (P41145 whole entry): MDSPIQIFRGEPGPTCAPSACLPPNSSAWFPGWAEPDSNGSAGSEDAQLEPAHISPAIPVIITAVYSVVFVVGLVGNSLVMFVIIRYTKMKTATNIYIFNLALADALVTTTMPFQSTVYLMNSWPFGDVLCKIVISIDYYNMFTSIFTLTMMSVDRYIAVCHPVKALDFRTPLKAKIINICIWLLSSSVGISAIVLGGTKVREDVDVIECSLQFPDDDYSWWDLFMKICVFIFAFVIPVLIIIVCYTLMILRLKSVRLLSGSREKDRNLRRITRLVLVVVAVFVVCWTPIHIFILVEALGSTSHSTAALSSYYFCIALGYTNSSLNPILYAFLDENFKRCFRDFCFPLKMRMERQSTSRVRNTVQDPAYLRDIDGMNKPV
# [4] = target: T4, Kappa-type opioid receptor; assay type: functional; remark: listed apart in the source
# [5] = target: T3, Delta-type opioid receptor; test: HTS Image-Based Screen for Antagonists of the DOR Receptor. [Related pubchem assays (depositor defined):AID1777, AID1785, AID1786, AID2133]; assay type: functional
# Mu-type opioid receptor = Mu-type opioid receptor (Homo sapiens, UniProt P35372); test: HTS Image-Based Screen for Agonists of the MOR Receptor. [Related pubchem assays (depositor defined):AID1777, AID1785, AID1786, AID2133]; assay type: functional;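 also: imaging of beta-arrestin GFP recruitment into spots after receptor activation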
# Beta-galactosidase = Beta-galactosidase (Escherichia coli, UniProt Q8VNN2); assay type: functional
# Beta-galactosidase, sequence (Q8VNN2 whole entry): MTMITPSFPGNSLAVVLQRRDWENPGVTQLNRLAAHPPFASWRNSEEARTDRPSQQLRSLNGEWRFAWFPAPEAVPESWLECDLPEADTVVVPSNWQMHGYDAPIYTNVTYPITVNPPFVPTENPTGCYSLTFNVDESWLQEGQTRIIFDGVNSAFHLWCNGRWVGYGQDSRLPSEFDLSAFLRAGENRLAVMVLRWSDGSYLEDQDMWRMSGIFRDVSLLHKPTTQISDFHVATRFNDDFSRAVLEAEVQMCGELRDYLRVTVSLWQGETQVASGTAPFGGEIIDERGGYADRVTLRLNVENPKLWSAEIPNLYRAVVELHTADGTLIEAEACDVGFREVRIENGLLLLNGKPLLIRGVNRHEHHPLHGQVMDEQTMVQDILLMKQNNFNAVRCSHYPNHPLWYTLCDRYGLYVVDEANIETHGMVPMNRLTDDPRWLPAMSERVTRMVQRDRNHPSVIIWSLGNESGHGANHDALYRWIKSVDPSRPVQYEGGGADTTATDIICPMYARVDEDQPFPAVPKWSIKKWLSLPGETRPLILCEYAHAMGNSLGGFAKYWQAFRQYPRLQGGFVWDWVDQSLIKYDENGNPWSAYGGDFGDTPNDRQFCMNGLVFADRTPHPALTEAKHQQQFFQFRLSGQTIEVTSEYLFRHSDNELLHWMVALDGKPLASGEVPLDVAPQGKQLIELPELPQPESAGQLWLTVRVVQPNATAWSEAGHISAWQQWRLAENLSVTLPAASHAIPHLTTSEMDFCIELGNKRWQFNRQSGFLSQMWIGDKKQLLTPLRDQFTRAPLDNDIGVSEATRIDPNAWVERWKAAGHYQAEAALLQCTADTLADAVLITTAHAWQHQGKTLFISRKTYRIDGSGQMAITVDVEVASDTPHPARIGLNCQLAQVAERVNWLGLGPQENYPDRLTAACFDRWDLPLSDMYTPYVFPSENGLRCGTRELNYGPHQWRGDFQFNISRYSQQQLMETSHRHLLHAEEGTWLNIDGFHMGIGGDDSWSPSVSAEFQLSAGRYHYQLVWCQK
# [6] = target: T5, Tyrosine-protein phosphatase non-receptor type 7 (Homo sapiens, UniProt P35236); assay type: functional
# T5 sequence (P35236 whole entry): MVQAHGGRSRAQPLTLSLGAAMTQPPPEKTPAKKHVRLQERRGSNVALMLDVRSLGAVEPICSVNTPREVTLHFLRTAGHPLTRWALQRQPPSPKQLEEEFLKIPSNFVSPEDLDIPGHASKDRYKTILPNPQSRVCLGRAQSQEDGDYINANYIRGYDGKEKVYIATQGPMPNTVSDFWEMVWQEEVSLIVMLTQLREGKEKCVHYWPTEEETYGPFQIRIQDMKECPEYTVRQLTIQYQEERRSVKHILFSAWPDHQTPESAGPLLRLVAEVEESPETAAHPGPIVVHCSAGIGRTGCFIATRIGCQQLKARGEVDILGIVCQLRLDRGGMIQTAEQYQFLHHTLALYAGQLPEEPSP
# [7] = target: T6, Tyrosine-protein phosphatase non-receptor type 22 (Homo sapiens, UniProt Q9Y2R2); assay type: functional
# T6 sequence (Q9Y2R2 whole entry): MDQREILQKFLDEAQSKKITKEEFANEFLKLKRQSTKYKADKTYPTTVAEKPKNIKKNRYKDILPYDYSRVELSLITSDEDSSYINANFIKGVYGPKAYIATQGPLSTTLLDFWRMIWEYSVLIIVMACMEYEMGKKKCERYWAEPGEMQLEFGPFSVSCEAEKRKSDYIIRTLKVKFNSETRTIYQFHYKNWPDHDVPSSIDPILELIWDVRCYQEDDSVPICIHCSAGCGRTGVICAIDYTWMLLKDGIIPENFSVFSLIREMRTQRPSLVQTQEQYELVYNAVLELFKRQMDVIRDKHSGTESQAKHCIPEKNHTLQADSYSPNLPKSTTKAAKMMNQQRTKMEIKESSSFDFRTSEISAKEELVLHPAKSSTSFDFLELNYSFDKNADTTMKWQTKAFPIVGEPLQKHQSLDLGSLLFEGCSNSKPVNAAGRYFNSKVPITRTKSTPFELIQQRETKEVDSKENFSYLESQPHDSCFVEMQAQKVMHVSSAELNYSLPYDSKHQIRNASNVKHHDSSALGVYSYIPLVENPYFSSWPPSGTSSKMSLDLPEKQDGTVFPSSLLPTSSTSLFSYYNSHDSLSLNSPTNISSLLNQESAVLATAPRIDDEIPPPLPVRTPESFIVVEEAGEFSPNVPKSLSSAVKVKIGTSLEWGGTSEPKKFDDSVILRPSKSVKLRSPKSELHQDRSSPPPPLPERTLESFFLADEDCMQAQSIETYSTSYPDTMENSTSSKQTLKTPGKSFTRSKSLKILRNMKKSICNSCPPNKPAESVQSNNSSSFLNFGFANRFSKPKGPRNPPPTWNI
# [8] = target: T6, Tyrosine-protein phosphatase non-receptor type 22; assay type: functional; remark: listed apart in the source
# Cytochrome P450 2D6 = Cytochrome P450 2D6 (Homo sapiens, UniProt P10635);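 also: CYP2D6 member of a cytochrome P450 panel assay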
# [9] = target: T7, Orexin/Hypocretin receptor type 1 (Homo sapiens, UniProt O43613); test: (§1) Fluorescence-based cell-based high throughput dose response assay for antagonists of the orexin 1 receptor (OX1R; HCRTR1). [Related pubchem assays (depositor defined):AID434989, AID435008, AID463079, AID485270, AID492963, AID492964, AID492965, AID493232, AID504717, AID504718]; assay type: functional
# T7 sequence (O43613 whole entry): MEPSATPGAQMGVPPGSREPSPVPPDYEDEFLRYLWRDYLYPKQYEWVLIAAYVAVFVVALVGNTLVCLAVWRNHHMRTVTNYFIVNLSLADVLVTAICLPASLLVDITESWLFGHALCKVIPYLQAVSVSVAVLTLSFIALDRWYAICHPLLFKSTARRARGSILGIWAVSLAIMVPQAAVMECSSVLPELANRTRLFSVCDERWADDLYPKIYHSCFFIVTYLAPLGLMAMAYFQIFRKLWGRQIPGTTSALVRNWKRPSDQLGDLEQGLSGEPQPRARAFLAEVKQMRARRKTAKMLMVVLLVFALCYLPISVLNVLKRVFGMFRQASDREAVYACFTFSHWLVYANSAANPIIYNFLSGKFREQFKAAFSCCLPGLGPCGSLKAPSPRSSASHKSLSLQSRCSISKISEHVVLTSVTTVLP
# [10] = Trypanosoma cruzi growth suppression in host cells – NIH3T3 host cells, beta-gal luminescence, confirmation (AID 2044); assay type: functional, cell-based;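 also: intracellular parasites grown in NIH/3T3 mouse fibroblasts as host cells; luminescent beta-galactosidase reporter signal from transgenic T. cruzi replicating inside host cells; inhibitors lower the luminescence signal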
# CHO-K1 = test: (§2) Counterscreen for antagonists of the orexin 1 receptor (OX1R; HCRTR1): Homogeneous time resolved fluorescence (HTRF)-based cell-based dose response assay to identify antagonists of the parental CHO-K1 cell line. [Related pubchem assays (depositor defined):AID434989, AID435008, AID463079, AID485270, AID492963, AID492964, AID492965, AID493232, AID504699, AID504701]; assay type: functional; settings: Cricetulus griseus
# [11] = target: T7, Orexin/Hypocretin receptor type 1; test: as §1, with “Homogeneous Time Resolved Fluorescence (HTRF)-based” for “Fluorescence-based”; assay type: functional
# [12] = as §2, with “Fluorescence-based” for “Homogeneous time resolved fluorescence (HTRF)-based”, “cell-based high throughput” for “cell-based”, “CHO” for “CHO-K1”; assay type: functional
# Phosphomannomutase 2 = Phosphomannomutase 2 (Homo sapiens, UniProt O15305); test: Counter screen SAR assay for PMM2 inhibitors via a fluorescence intensity assay. [Related pubchem assays (depositor defined):AID1545, AID1574]
# Phosphomannomutase 2, sequence (O15305 whole entry): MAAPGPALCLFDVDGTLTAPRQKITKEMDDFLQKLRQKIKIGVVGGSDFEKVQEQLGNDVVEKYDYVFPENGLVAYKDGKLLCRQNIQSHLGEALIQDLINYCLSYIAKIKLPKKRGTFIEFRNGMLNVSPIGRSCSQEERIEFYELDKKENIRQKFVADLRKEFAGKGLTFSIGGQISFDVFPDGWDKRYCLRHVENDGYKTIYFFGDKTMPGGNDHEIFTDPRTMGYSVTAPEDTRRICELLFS
# [13] = target: T8, Heat shock factor protein 1 (Mus musculus, UniProt P38532); test: enhancement of HSF1-driven luciferase signal – cell-based, NIH3T3, luminescence, dose retest, confirmation (AID 435004); assay type: functional;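 also: stress induced by proteasome inhibitor MG132 added 30 min after compound; luciferase reporter driven by HSF1 response element in NIH3T3 cells; actives raise luminescence as potentiators of the MG132 stress response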
# T8 sequence (P38532 whole entry): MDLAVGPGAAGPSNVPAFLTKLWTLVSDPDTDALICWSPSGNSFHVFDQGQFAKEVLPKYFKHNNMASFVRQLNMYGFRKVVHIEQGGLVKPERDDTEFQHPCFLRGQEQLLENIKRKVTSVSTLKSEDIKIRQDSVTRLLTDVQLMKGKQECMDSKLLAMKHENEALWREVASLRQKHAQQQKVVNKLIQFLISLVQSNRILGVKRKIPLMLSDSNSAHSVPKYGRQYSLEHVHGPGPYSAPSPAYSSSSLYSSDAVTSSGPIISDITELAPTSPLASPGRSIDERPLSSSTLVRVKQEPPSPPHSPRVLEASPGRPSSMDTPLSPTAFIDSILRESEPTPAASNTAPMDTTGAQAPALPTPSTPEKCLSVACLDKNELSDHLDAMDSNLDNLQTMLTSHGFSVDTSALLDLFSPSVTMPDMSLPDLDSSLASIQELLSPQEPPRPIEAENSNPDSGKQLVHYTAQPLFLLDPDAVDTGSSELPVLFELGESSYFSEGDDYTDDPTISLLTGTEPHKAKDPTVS
# Paired box protein Pax-8 = Paired box protein Pax-8 (Homo sapiens, UniProt Q06710); test: PAX8 transcriptional activity inhibition in RMG-I – RMG-I cells, luciferase, cherry-pick, dose response (AID 687027); assay type: functional, cell-based;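 also: luciferase reporter driven by Pax8 target thyroperoxidase promoter measured by SteadyGlo luminescence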
# Paired box protein Pax-8, sequence (Q06710 whole entry): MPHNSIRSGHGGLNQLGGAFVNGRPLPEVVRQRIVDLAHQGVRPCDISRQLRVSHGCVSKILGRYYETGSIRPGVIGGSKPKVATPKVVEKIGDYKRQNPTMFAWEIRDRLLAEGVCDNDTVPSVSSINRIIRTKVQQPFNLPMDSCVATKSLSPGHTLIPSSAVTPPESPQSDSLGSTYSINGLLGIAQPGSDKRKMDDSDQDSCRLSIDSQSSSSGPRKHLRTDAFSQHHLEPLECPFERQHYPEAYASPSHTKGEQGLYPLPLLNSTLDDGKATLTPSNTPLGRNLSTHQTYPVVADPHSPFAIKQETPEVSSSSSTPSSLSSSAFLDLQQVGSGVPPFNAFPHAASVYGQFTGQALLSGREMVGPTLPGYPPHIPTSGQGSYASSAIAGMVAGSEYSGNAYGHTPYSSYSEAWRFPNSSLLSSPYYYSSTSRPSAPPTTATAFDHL
# X-box-binding protein 1 = X-box-binding protein 1 (Homo sapiens, UniProt P17861); assay type: functional, Cricetulus griseus;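 also: confirmatory dose-response counter-screen serving a CHOP assay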
# X-box-binding protein 1, sequence (P17861 whole entry): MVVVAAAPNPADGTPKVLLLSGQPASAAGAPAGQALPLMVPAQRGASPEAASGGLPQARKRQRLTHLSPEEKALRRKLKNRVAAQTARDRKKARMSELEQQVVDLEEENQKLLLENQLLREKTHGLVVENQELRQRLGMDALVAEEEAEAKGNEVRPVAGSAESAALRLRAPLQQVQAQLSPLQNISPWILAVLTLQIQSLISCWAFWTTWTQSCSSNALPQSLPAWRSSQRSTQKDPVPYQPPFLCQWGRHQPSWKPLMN
# SUMO-activating enzyme, sequence (Q9UBE0 whole entry): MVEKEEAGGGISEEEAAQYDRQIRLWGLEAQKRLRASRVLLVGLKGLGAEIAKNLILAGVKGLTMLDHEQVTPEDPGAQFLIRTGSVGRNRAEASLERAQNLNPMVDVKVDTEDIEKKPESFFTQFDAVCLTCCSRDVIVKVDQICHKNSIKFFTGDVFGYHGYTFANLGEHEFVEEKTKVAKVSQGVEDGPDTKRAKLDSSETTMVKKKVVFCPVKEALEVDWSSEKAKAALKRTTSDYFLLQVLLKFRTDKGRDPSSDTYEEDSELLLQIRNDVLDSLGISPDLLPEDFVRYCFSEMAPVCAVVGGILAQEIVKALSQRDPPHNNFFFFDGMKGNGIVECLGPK
# SUMO-activating enzyme, sequence (Q9UBT2 whole entry): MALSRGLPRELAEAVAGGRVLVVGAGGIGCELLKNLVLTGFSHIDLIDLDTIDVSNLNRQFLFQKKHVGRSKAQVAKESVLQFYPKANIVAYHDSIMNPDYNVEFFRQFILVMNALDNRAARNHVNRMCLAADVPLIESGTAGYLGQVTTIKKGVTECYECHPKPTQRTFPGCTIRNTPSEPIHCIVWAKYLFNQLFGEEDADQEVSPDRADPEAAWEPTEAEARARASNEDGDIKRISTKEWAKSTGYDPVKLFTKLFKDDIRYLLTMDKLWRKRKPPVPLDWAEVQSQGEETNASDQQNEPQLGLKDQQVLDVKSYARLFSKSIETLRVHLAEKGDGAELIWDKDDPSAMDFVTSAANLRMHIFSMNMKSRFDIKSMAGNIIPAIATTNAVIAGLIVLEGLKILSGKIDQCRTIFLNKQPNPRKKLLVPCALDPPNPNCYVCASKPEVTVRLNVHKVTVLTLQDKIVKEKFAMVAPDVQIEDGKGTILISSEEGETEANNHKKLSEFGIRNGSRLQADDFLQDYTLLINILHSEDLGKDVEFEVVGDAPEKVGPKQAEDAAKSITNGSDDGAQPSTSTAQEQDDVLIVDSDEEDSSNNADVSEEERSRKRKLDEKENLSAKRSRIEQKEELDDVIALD
structure (smiles),measurement,setting,value
C/C(=N\NC(=O)CNc1cccc2ccccc12)c1ccccc1,IC50,SUMO-activating enzyme,> 100 µM (inactive)
same,IC50,[1],> 50 µM (not active)
O=C(NC(=S)NNC(=O)c1cnccn1)c1ccc(F)cc1,AC50,INS1,0.889 µM (active)
same,EC50,Hexokinase HKDC1,14.5 µM (active)
same,EC50,Hexokinase-1,> 80 µM (inactive)
same,IC50,Nonstructural protein 1,2.95 µM (active)
COc1ccc(N2CCN(CCCNC(=O)C(=O)c3c(C)n(C)c4ccccc34)CC2)cc1,EC50,[2],> 32 µM (inactive)
same,IC50,[3],18.3 µM (active)
same,IC50,[4],6.16 µM
same,IC50,[5],> 32 µM (inactive)
same,EC50,Mu-type opioid receptor,> 32 µM (inactive)
same,EC50,Beta-galactosidase,> 31.5 µM (inactive)
O=C(Nc1nccs1)c1ccc(S(=O)(=O)NCc2cccs2)cc1,IC50,[6],> 79.4 µM (inactive)
same,IC50,[7],> 79.4 µM (inactive)
same,IC50,[8],> 79.4 µM (inactive)
NC(=S)N/N=C/c1ccccc1OCc1cccc(Cl)c1,AC50,Cytochrome P450 2D6,inconclusive
same,IC50,[9],7.74 µM (active)
same,EC50,[10],0.323 µM (active)
same,IC50,CHO-K1,> 66.2 µM (inactive)
same,IC50,[11],2.71 µM (active)
same,IC50,[12],> 49.7 µM (inactive)
CSc1nc(-c2ccccc2)nc(C(Cl)Cl)n1,IC50,Phosphomannomutase 2,> 100 µM (inactive)
same,EC50,[13],2.7 µM (active)
same,AC50,INS1,3.69 µM (active)
same,AC50,Paired box protein Pax-8,2.26 µM (active)
same,Absolute IC50 (XBP1),X-box-binding protein 1,10 µM
COc1ccc(-c2nc3c(c(=O)n(C)c(=O)n3C)n2CC2CC(c3ccccc3)=NO2)cc1OC (stereo not drawn),EC50,Hexokinase HKDC1,33.4 µM (inactive)
same,EC50,Hexokinase-1,35.1 µM (inactive)
